From the NIST ThermoML archive (doi:10.1021/acs.jced.8b00692)
Numbers after ± are expanded uncertainties.

Assay: xn = mol fraction of the nth substance listed
Settings: 102 kPa, Liquid; for mass density: Vibrating tube method; for viscosity: Concentric cylinders viscometry; for speed of sound: Frequency=3 MHz, Single path-length method

CCCCCCCCCCC1CCCCC1 [decylcyclohexane] + CCCCCCCCCCCCCCCC
Settings	mass density [kg/m3]	speed of sound [m/s]	viscosity [mPa·s]
323.15 K, x1 = 0.6008	779.37 ± 0.81	–	–
323.15 K, x1 = 0.7237	785.08 ± 0.81	–	–
323.15 K, x1 = 1	798.27 ± 0.81	–	–
333.15 K, x1 = 0.2	754.42 ± 0.81	1221.9 ± 0.7	1.65 ± 0.01
333.15 K, x1 = 0.4	763.35 ± 0.81	1231.6 ± 0.7	1.75 ± 0.01
333.15 K, x1 = 0.4999	767.92 ± 0.81	1236.3 ± 0.7	1.81 ± 0.01
333.15 K, x1 = 0.6008	772.55 ± 0.81	1241.5 ± 0.7	1.87 ± 0.02
333.15 K, x1 = 0.7237	778.28 ± 0.81	1248.2 ± 0.8	1.95 ± 0.02
333.15 K, x1 = 1	791.5 ± 0.81	1262.9 ± 0.9	2.16 ± 0.02
343.15 K, x1 = 0.2	747.5 ± 0.8	–	1.42 ± 0.01
343.15 K, x1 = 0.4	756.5 ± 0.8	–	1.48 ± 0.01
343.15 K, x1 = 0.4999	761.3 ± 0.8	–	1.54 ± 0.01
343.15 K, x1 = 0.6008	765.8 ± 0.8	–	1.58 ± 0.01
343.15 K, x1 = 0.7237	771.6 ± 0.8	–	1.64 ± 0.01
343.15 K, x1 = 1	784.8 ± 0.8	–	1.82 ± 0.02
353.15 K, x1 = 0.2	740.7 ± 0.8	–	1.21 ± 0.01
353.15 K, x1 = 0.4	749.7 ± 0.8	–	1.28 ± 0.01
353.15 K, x1 = 0.4999	754.4 ± 0.8	–	1.32 ± 0.01
353.15 K, x1 = 0.6008	759 ± 0.8	–	1.36 ± 0.01
353.15 K, x1 = 0.7237	764.8 ± 0.8	–	1.41 ± 0.01
353.15 K, x1 = 1	778 ± 0.8	–	1.55 ± 0.01
363.15 K, x1 = 0.2	733.7 ± 0.8	–	1.08 ± 0.01
363.15 K, x1 = 0.4	742.8 ± 0.8	–	1.1 ± 0.01
363.15 K, x1 = 0.4999	747.6 ± 0.8	–	1.17 ± 0.01
363.15 K, x1 = 0.6008	752.1 ± 0.8	–	1.18 ± 0.01
363.15 K, x1 = 0.7237	758 ± 0.8	–	1.22 ± 0.01
363.15 K, x1 = 1	771.2 ± 0.8	–	1.34 ± 0.01
373.15 K, x1 = 0.2	726.8 ± 0.8	–	0.926 ± 0.012
373.15 K, x1 = 0.4	735.9 ± 0.8	–	0.979 ± 0.012
373.15 K, x1 = 0.4999	740.7 ± 0.8	–	1.01 ± 0.01
373.15 K, x1 = 0.6008	745.2 ± 0.8	–	1.04 ± 0.01
373.15 K, x1 = 0.7237	751.1 ± 0.8	–	1.07 ± 0.01
373.15 K, x1 = 1	764.4 ± 0.8	–	1.17 ± 0.01
